Earlier results in patent publication US10828278B2, “Tesofensine and beta blocker combination formulations” (SANIONA A/S, priority 2015, dated 2020).

Legend:
[1] = for half-life: in vivo
[2] = long-term treatment, corrected for placebo and diet effects, obese patients
[3] = in vivo

COc1ccccc1OCCNCC(O)COc1cccc2[nH]c3ccccc3c12 (racemic) [carvedilol, (±)-[3-(9H-carbazol-4-yloxy)-2-hydroxypropyl][2-(2-methoxyphenoxy)ethyl]amine]
half-life [1]: 7 to 10 h

CCOC[C@@H]1[C@@H](c2ccc(Cl)c(Cl)c2)C[C@@H]2CC[C@H]1N2C [Tesofensine, (1R,2R,3S,5S)-3-(3,4-dichlorophenyl)-2-(ethoxymethyl)-8-methyl-8-azabicyclo[3.2.1]octane]
weight loss [2]: about 10% | serum half-life ([1]; serum): nine | sagittal diameter [3]: significantly decreases | waist circumference [3]: significantly decreases

COCCc1ccc(OCC(O)CNC(C)C)cc1 (stereo not drawn) [metoprolol, 1-(Isopropylamino)-3-[4-(2-methoxyethyl)-phenoxy]-propan-2-ol]
half-life [1]: 3 to 4 h
